Laboratory results published in patent US8513233B2, “Pyrimidinyl-propionic acid derivatives and their use as PPAR agonists” (Shanghai Institute of Materia Medica, CAS, priority 2007, dated 2013).
Like-named read-outs stand apart in the source and are kept apart here. One block for each compound: values may come before it.

Tests used:
[1] = system: SPC-A1; assay: Growth inhibition, modified MTT assay, SPC-A1; assay type: cell-based; settings: SPCA1, mean of 3 independent tests
Method: (§1) The growth inhibition was evaluated by the modified MTT assay. Briefly, the cells were seeded at 1×10^4 cells/well in 96-well plates (Falcon, Calif., USA), and incubated for 24 h in […] culture media with 10% FCS. The media were then replaced by serum-free medium. After 24 h, the media were placed in triplicate with grade concentrations of compounds. As controls, the cells were cultivated in DMEM/F12 only. The cells were then treated by MTT (Sigma, USA) assay, […] (5 g/L) for 4 h. After the removal of the supernatant, the purple-blue sediment was dissolved in 100 μL/well DMSO, and the optical densities were read on the multi-well scanning spectrophotometer (Labsystems Dragon, Finland) at 492 nm (A492). The growth inhibition rate (GIR) of the treated cells was calculated using Equation: GIR(%)={1−[A490/A490(control)]}×100% The results were also converted to IC50 (the compound concentration required for 50% growth inhibition of tumor cells), which were calculated by using the sigmoidal fitting model by the Origin 7.0 software (OriginLab, Northampton, Mass., USA). The mean IC50 was determined from the results of 3 independent tests.

[2] = system: T24; assay: Growth inhibition, modified MTT assay, T24; assay type: cell-based; settings: Homo sapiens, T-24, mean of 3 independent tests
Method: as §1

[3] = system: HepG2; assay: Growth inhibition, modified MTT assay, HepG2; assay type: cell-based; settings: Homo sapiens, mean of 3 independent tests
Method: as §1

[4] = system: MCF-7; assay: Growth inhibition, modified MTT assay, MCF-7; assay type: cell-based; settings: Homo sapiens, MCF7; MCF-7, MTT, mean of 3 independent tests
Method: as §1

[5] = target: T1, PPAR-γ (Homo sapiens, UniProt P37231); assay: Transient transfection and transcription assay (luciferase reporter, U2OS cells); assay type: cell-based; settings: 24 h treatment
T1 construct: expressed in transfected cells; host or cells: U2OS cells, transiently transfected with pcDNA3.1 expression vectors (FuGene6)
T1 sequence (P37231 1-505): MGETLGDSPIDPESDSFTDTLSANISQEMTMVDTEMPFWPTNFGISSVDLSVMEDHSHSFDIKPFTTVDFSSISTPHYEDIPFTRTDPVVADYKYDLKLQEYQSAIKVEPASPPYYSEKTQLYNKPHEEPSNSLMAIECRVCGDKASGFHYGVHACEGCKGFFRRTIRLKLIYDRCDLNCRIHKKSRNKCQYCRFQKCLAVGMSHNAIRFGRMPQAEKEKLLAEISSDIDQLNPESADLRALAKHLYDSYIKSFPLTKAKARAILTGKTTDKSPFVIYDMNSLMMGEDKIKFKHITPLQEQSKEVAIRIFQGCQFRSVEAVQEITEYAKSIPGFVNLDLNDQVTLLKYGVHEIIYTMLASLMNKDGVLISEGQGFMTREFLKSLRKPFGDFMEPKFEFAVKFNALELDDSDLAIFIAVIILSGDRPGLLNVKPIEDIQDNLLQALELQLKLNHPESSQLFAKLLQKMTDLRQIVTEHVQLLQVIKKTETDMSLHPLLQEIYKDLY
T1 sequence (P19793 1-462 partner): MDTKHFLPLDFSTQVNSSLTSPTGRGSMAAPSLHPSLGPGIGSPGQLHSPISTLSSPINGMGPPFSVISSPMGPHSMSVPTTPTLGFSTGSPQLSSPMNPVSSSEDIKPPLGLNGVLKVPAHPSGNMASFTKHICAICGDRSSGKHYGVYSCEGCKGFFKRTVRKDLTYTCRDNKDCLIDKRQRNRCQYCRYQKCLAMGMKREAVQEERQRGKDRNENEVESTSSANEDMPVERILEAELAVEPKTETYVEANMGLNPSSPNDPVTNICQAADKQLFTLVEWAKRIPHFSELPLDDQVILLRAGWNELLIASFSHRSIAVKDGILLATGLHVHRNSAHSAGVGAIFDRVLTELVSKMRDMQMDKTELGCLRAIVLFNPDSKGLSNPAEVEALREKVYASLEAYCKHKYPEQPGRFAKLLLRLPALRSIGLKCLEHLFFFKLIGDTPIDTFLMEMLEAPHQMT
Method: cDNAs for Human RXR, PPAR were obtained by RTPCR from the human liver or adipose tissues. Amplified cDNAs were cloned into pcDNA3.1 expression vector and the inserts were confirmed by sequencing. U2OS cells were cultured in McCoy's 5A with 10% heat-inactivated fetal bovine serum in a humidified 5% CO2 atmosphere at 37° C. Cells were seeded in 96-well plates the day before transfection to give a confluence of 50-80% at transfection. A total of 60 ng of DNA containing 10 ng of hRXR, 10 ng of pCMV Gal, 10 ng of nuclear receptor expression vectors and 30 ng of the corresponding reporters were cotransfected per well using FuGene6 transfection reagent according to the manufacturer's instructions. […] The final concentration of DMSO in culture medium was 0.1%. […] Luciferase activity was monitored using the luciferase assay kit according to the manufacturers instructions. Light emission was read in a Labsystems Ascent Fluoroskan reader. To measure galactosidase activity to normalize the luciferase data, 50 IL of supernatant from each transfection lysate was transferred to a new microplate. Galactosidase assays were performed in the microwell plates using a kit from Promega and read in a microplate reader. Compounds were tested in five concentrations ranging from 0.01 to 10 μM. […] The results were expressed as means (SD).

[6] = system: Han:SPRD rat model of ADPKD; assay type: in vivo; settings: for 24-hour urine protein level / Blood urea nitrogen (BUN) levels: Treatment Group 10 mg/kg.d
Source text: Han: SPRD rats were obtained from our own breeding colony that is derived from animals that were kindly provided to us by Mayo Clinic (Rochester Minn.), All animal procedures and care were taken at the SPF-level Laboratory Animal Center of the Second Military Medical University (Shanghai, […].). Carboxymethyl cellulose sodium (CMC-Na) was purchased from Shanghai Chemical Reagent Company. Automatic clinical chemistry analyzer (Hitachi Clinical Analyzer 7080).
2.1 Experimental protocol: A total of 48 Han:SPRD rats (about ⅔ rats were Cy/+, ⅓ were +/+, homozygote rats −/− die within 3 weeks), all at 3 weeks of age, were randomized into 2 groups: negative control group and treatment groups (10 mg/kg.d compound 2). The rats of negative control group were given 1% CMC-Na, while the rats of treatment group were given 10 mg/kg.d compound 2 (suspended in 1% CMC-Na) by daily gavage from 3 weeks through 11 weeks of age, removal +/+ rats in both groups, then general animal feeds were given to rats in control group, the rats of treatment group were given animal feeds added by 0.03% of compound 2 (approximately 10 mg/kg. d), both groups were maintained with free access to water. Long-term observation of the rats until they died, record the length of their life span. 2.2 Physiological and biochemical indexes: since the day of treatment, general state and body weight of rats were examined and recorded every month, Blood (2 ml) was obtained from the rat orbital venous plexus using a glass capillary tube, then centrifuged for 10 minutes at 4000 rpm to collect serum for biochemical analysis including blood urea nitrogen (BUN), ALT, AST, serum lipids et. Urine was collected using Metabolic Cage for 24-hour urine protein analysis. 3.

[7] = after 2 months of treatment, P<0.001

SMILES: CC(Cc1ccc(Oc2cc(N3CCN(Cc4ccccc4)CC3)nc(N)n2)cc1)(Oc1ccccc1)C(=O)O (racemic) [Compound 2, rac-3-{4-[2-Amino-6-(4-benzyl-piperazin-1-yl)-pyrimidin-4-yloxy]-phenyl}-2-methyl-2-phenoxy-propionic acid]
EC50 [5]: 6.76 µM
24-hour urine protein level ([6]; 1 month): 62.3 ± 6.3 mg/24 h
Blood urea nitrogen (BUN) levels ([6]; 1 month): 11.55 ± 0.57 mmol/L
24-hour urine protein level ([6]; 2 month): 64.1 ± 5.0 mg/24 h
Blood urea nitrogen (BUN) levels ([6]; 2 month): 12.36 ± 0.77 mmol/L
24-hour urine protein level ([6]; 3 month): 67.1 ± 4.9 mg/24 h
Blood urea nitrogen (BUN) levels ([6]; 3 month): 12.58 ± 1.35 mmol/L
24-hour urine protein level ([6]; 4 month): 66.3 ± 4.6 mg/24 h
Blood urea nitrogen (BUN) levels ([6]; 4 month): 12.79 ± 1.41 mmol/L
24-hour urine protein level ([6]; 5 month): 67.1 ± 3.6 mg/24 h
Blood urea nitrogen (BUN) levels ([6]; 5 month): 13.10 ± 1.64 mmol/L
24-hour urine protein level ([6]; 6 month): 66.0 ± 8.6 mg/24 h
Blood urea nitrogen (BUN) levels ([6]; 6 month): 13.26 ± 1.05 mmol/L
24-hour urine protein level ([6]; 7 month): 64.4 ± 2.8 mg/24 h
Blood urea nitrogen (BUN) levels ([6]; 7 month): 12.60 ± 1.40 mmol/L
24-hour urine protein level ([6]; 8 month): 70.4 ± 8.8 mg/24 h
Blood urea nitrogen (BUN) levels ([6]; 8 month): 13.16 ± 1.73 mmol/L
24-hour urine protein level ([6]; 9 month): 67.8 ± 3.2 mg/24 h
Blood urea nitrogen (BUN) levels ([6]; 9 month): 12.87 ± 2.72 mmol/L
24-hour urine protein level ([6]; 10 month): 70.0 ± 5.9 mg/24 h
Blood urea nitrogen (BUN) levels ([6]; 10 month): 13.17 ± 3.70 mmol/L
24-hour urine protein level ([6]; baseline): Non-detected
Blood urea nitrogen (BUN) levels ([6]; baseline): 4.97 ± 0.67 mmol/L
average 24-hour urine protein level compared with the negative control group [6, 7]: lower
average BUN level compared with control group [6, 7]: lower
life span of Han:SPRD rats ([6]; at suitable dose, FIG. 1): prolong the life span
change in body weight ([6]; rat, in vivo): no statistically significant change
poisonous and side effects ([6]; rat, in vivo): without any obvious poisonous and side effects
serum ALT ([6]; rat, in vivo): within the normal range
serum AST ([6]; rat, in vivo): within the normal range
serum lipids ([6]; rat, in vivo): within the normal range
average survival time ([6]; treatment group, long-term, 2 rats still alive): ≥ 451.1 days
IC50 [1]: 65.5 µM
IC50 [2]: 72 µM
IC50 [3]: 80.6 µM
IC50 [4]: 55 µM

SMILES: CC(Cc1ccc(Oc2cc(N3CCN(c4cccc(Cl)c4)CC3)nc(N)n2)cc1)(Oc1ccccc1)C(=O)O (centres unmarked) [Compound 23, 3-{4-{2-Amino-6-[4-(3-chloro-phenyl)-piperazin-1-yl]-pyrimidin-4-yloxy}-phenyl}-2-methyl-2-phenoxy-propionic acid]
EC50 [5]: 4.37 µM
IC50 [1]: 12 µM
IC50 [2]: 15.2 µM
IC50 [3]: 20 µM
IC50 [4]: 11.8 µM

SMILES: CC(Cc1ccc(Oc2cc(N3CCN(Cc4ccco4)CC3)nc(N)n2)cc1)(Oc1ccccc1)C(=O)O (centres unmarked) [Compound 37, 3-{4-[2-Amino-6-(4-furan-2-ylmethyl-piperazin-1-yl)-pyrimidin-4-yloxy]phenyl}-2-methyl-2-phenoxy-propionic acid]
EC50 [5]: 3.89 µM
IC50 [1]: 37.6 µM
IC50 [2]: 40.6 µM
IC50 [3]: > 50 µM
IC50 [4]: 47.6 µM

SMILES: CC(Cc1ccc(Oc2cc(N3CCN(Cc4ccccc4)CC3)nc(N)n2)cc1)(Oc1ccc(C(F)(F)F)cc1)C(=O)O (centres unmarked) [Compound 32, 3-{4-[2-Amino-6-(4-benzyl-piperazin-1-yl)-pyrimidin-4-yloxy]-phenyl}-2-methyl-2-(4-trifluoromethyl-phenoxy)-propionic acid]
EC50 [5]: 2.24 µM
IC50 [1]: 28 µM
IC50 [2]: 37.7 µM
IC50 [3]: 30 µM
IC50 [4]: 34.2 µM

SMILES: CC(Cc1ccc(Oc2cc(N3CCN(Cc4ccccc4)CC3)nc(N)n2)cc1)(Oc1ccc(-c2ccccc2)cc1)C(=O)O (centres unmarked) [Compound 29, 3-{4-[2-Amino-6-(4-benzyl-piperazin-1-yl)-pyrimidin-4-yloxy]-phenyl}-2-(biphenyl-4-yloxy)-2-methyl-propionic acid]
EC50 [5]: 2.57 µM
IC50 [1]: 34.1 µM
IC50 [2]: 40 µM
IC50 [3]: > 50 µM
IC50 [4]: > 50 µM

Second part, led by results:

IC50 [2]: 45.6 µM
IC50 [3]: > 50 µM
IC50 [4]: 48.9 µM
melting point: 103 to 105 °C
SMILES: CC(Cc1ccc(Oc2cc(N3CCN(Cc4ccc(Cl)cc4)CC3)nc(N)n2)cc1)(Oc1ccccc1)C(=O)O (centres unmarked) [Compound 13, 3-{4-{2-Amino-6-[4-(4-chloro-benzyl)-piperazin-1-yl]-pyrimidin-4-yloxy}-phenyl}-2-methyl-2-phenoxy-propionic acid]
IC50 [1]: > 50 µM

IC50 [2]: > 50 µM
IC50 [3]: > 50 µM
IC50 [4]: 45.2 µM
melting point: 137 to 138 °C
SMILES: CC(Cc1ccc(Oc2cc(N3CCN(Cc4ccncc4)CC3)nc(N)n2)cc1)(Oc1ccccc1)C(=O)O (centres unmarked) [Compound 40, 3-{4-[2-Amino-6-(4-pyridin-4-ylmethyl-piperazin-1-yl)-pyrimidin-4-yloxy]-phenyl}-2-methyl-2-phenoxy-propionic acid]
IC50 [1]: 46.5 µM

IC50 [2]: > 50 µM
IC50 [3]: > 50 µM
IC50 [4]: > 50 µM
melting point: 107 to 109 °C
SMILES: CC(Cc1ccc(Oc2cc(N3CCN(Cc4ccc(F)cc4)CC3)nc(N)n2)cc1)(Oc1ccccc1)C(=O)O (centres unmarked) [Compound 7, 3-{4-{2-Amino-6-[4-(4-fluoro-benzyl)-piperazin-1-yl]-pyrimidin-4-yloxy}-phenyl}-2-methyl-2-phenoxy-propionic acid]
IC50 [1]: > 50 µM
